Source: publication PMC12699035, “Exploring market-approved azoles as potential breast cancer therapeutics targeting the VEGFR-2 biotarget” (Scientific Reports, 2025)

Test system: VEGF
Assay: Immunohistochemical staining of VEGF in SEC tumor sections
Format: in vivo, mice
Settings: IHC of SEC tumor
Text: VEGF has been considered a biomarker for VEGFR-2 bioactivity, as it binds to and activates this kinase receptor, playing a crucial role in angiogenesis. High VEGF levels are often associated with increased VEGFR-2 expression and activity, making VEGF a marker for VEGFR-2's function and tumor growth. […] The staining intensity is strong (+ 3), with dark brown cytoplasmic staining in most tumor cells. The immunoreactive score (IRS), calculated by multiplying the staining intensity score and the percentage of positive cells, is 9–12, indicating a high level of VEGF expression. This intense VEGF expression correlates with the presence of numerous irregular and dilated blood vessels in the tumor microenvironment.
The paraffin-infiltrated tissue was sliced into thin sections (4-6 μm) using a microtome and floated in a water bath. The sections were then mounted onto charged slides and left to dry overnight. The use of charged slides ensures the sections adhere properly to the slide. To carry out antibody staining, the paraffin wax was removed from the sample, and the tissue was rehydrated. The paraffin was eliminated by placing the tissue sections in three containers of xylene for 5 minutes each. Rehydration began by immersing the sections in two containers of 100% ethanol for 10 minutes each, followed by two containers of 95% ethanol for 10 minutes each. Finally, to complete the rehydration, the sections were washed twice in deionized water for 5 minutes each.
For antigen retrieval, the slides are heated in 10 mM Tris/1 mM EDTA, pH 9.0, kept at a sub-boiling temperature for 18 minutes, and then allowed to cool at room temperature for 30 minutes. For chromogenic staining detection, the sections are rinsed in deionized water three times for 5 minutes each, and then the endogenous peroxidase activity in the tissue sections is quenched to prevent high background staining by incubating the sections in 3% hydrogen peroxide for 10 minutes. Afterward, the sections are washed twice in deionized water for 5 minutes each, followed by a single wash in wash buffer for 5 minutes. A hydrophobic pen is used to carefully draw a large circle around the sample, ensuring it doesn’t touch the sample, creating a hydrophobic boundary to achieve optimal antibody staining quality. To prevent non-specific antibodies from binding to the tissue, each section is blocked with 100–400 µl of blocking solution for 1 hour at room temperature in a humidified chamber. The blocking solution was discarded, and 100–400 µl of diluted primary antibody was applied. […]
The slides were incubated overnight at 4°C in a humidified chamber. […] Then, 100–400 µl of Signal Stain DAB was applied to each section and monitored closely for 1–10 minutes until an acceptable staining intensity was achieved. […]

CCC(C)n1ncn(-c2ccc(N3CCN(c4ccc(OCC5COC(Cn6cncn6)(c6ccc(Cl)cc6Cl)O5)cc4)CC3)cc2)c1=O (centres unmarked) [Itraconazole, itraconazole]
immunoreactive score (IRS) (scale 0-12, SEC control 9–12): 4–8
percentage of VEGF-positive tumor cells (SEC control 80–90%): 40–60%
